Results on ten molecules are retold here after US20200054646A1, “USE OF PHENOTHIAZINE DERIVATIVE IN THE TREATMENT OF INFECTIOUS PURPURA OR PURPURA FULMINANS” (priority 2016, published 2020).

The test system of experiment [1] is meningococcal colonization of the human dermal vasculature. The experiment in a line: In vivo infection of mice engrafted with human skin. The settings on record: cefotaxime treatment.
Experiment [2] relates to Nm2C4.3 microcolonies on HBMEC. The experiment can be described thus: Dispersion of meningococcal microcolonies at the surface of infected human endothelial cells. In kind it is cell-based, Neisseria meningitidis. The settings on record: Cefotaxim 20 μg/ml. How it is done: Human […] microvascular endothelial cells (HBMEC) were infected with Nm2C4.3 for 1 h 30, treated with Trifluoperazine (10-40 μM) for 30 minutes, before fixation and immunofluorescence analysis using anti-Nm2C4.3 antibody and Alexa Fluor 633 Phalloidin. (A) Representative fluorescence microscopy showing bacterial colony (white dots) formed at the surface of the endothelial cells. (B) Quantification of the bacterial colonization was performed using Image J software.
HBMEC, a human endothelial cell line isolated from bone marrow capillaries (Schweitzer et al., 1997) were grown in Dulbecco's Modified Eagle Medium (DMEM) 4.5 g/L-Glutamax (ThermoFischer) 10% FBS. Cells were grown on Thermanox coverslips coated with gelatin 2% (BD Difco #214340) for 2 days to reach confluency. Cells were then infected with a suspension of Nm2C4.3 (˜10^7 CFU/ml) in DMEM/FBS during 30 minutes to allow bacterial adhesion. Cells were then washed three times with medium to remove non-adherent bacteria and infection was pursued for 1 h 30: adherent bacteria grew at the endothelial cell surface and formed micro-colonies. Trifluoperazine was then added to obtain final concentrations of 10, 20, 30 and 40 μM. After incubation for 30 minutes, cells were washed and fixed in 4% Paraformaldehyde for 10 min, washed three times with PBS, and permeabilized with 0.1% Triton X-100 in PBS for 10 min. Cells were blocked for 30 min with 3% BSA in PBS and were incubated for 2 h with the primary antibodies (Rabbit polyclonal anti-Nm2C4.3 strain, kindly provided by Dr X. Nassif, INEM, Paris). After three washes with PBS, cells were incubated for 1 h with […] anti-rabbit IgG (Jackson ImmunoResearch Laboratories), together with Alexa Fluor 633 Phalloidin (Thermofischer) and DAPI (0.5 mg ml-1, Sigma Aldrich) to stain Actin and nuclei, respectively. Labelled preparations were mounted in Glycergel media (DAKO) and image acquisitions were performed with a DM16000 microscope (Leica, X40). Quantification was done with ImageJ software (NIH). Results are presented as a vascular colonisation index corresponding to the area occupied by the fluorescently labelled bacteria per fields in relation to the area occupied by the fluorescently labelled human endothelial cells (Actin staining). Statistical analysis were performed with Student t test.

Experiment [3] deals with N. meningitidis 2C4.3 bacterial aggregates. The experiment in a line: microbe, parasite or virus in culture. In kind it is cell-based, Neisseria meningitidis. As to conditions: for effect on dispersion of meningococcal aggregates (in words): 0.5 to 80 μM, 30 min; for Concentration promoting efficient meningococcal dispersal (~80%): 30 min treatment, 0.5 to 80 μM tested; for EC80: Neisseria meningitidis, 0.5 h, read-out: Concentration promoting efficient meningococcal dispersal (~80%). On the procedure:
N. meningitidis 2C4.3 was grown in liquid culture at 10^7 CFU/ml for 2 h to form bacterial aggregates and were treated with increasing concentrations of Trifluoperazine (10 to 40 μM), Gentamicin (150 μg/ml) or cefotaxim (20 μg/ml) for 20 minutes and bacterial aggregates were immediately visualized using a phase-contrast microscope. […] (B) Quantification of the bacterial aggregation was performed using Image J software.
N. meningitidis 2C4.3 wild type strain and the isogenic derivative mutant PilT ([…]PilT) were grown in liquid culture at 10^7 CFU/ml for 2 h to form bacterial aggregates and then treated with 50 μM Trifluoperazine. Time lapse phase-contrast video microscopy was performed to visualize the effect on bacterial aggregates over time. Images were taken at the indicated time points of the video.
N. meningitidis 2C4.3 was grown in liquid culture at 10^7 CFU/ml for 2 h to form bacterial aggregates and were treated with 30 μM Trifluoperazine for 30 minutes to induce bacterial dispersion or PBS as a control. The medium was replaced to remove the Trifluoperazine and the reformation of bacterial aggregates were visualized overtime using a phase-contrast microscope.
FIG. 7. […] Bacteria were grown in suspension for 2 h then Phenothiazine derivatives were added at the indicated concentrations.
N. meninigitidis 2C4.3 strain was grown in suspension in wells of a 24 well plate, containing 1 ml of DMEM medium supplemented with 10% heat-inactivated fetal calf serum. After 2 h of growth, Trifluoperazine (or control vehicle) was added at various concentrations ranging from 10 to 40 μM for 20 min and the bacterial aggregates were visualized over time using a phase-contrast microscope.
N. meninigitidis 2C4.3 strain was grown in suspension in wells of a 24 well plate, containing 1 ml of DMEM medium supplemented with 10% heat-inactivated fetal calf serum. After 2 h of growth, various concentrations (0.5 to 80 μM) of phenothiazine-derivative compounds or control vehicle (PBS or DMSO) were added to the wells for 30 min and the bacterial aggregates were visualized using a phase-contrast microscope.
Were tested phenothiazine-derivative compounds of: • the Piperazine group: Trifluoperazine (Sigma #T8516), Fluphenazine (Sigma #F4765), Prochlorperazine (Sigma #P9178) Perphenazine (Sigma #P6402); • the Piperidine group: Thioridazine (Sigma #T9025) and Mesoridazin (Sigma #M4068); • the Aliphatic group: Chlorpromazine (Sigma #C8138), Promazine (Sigma #P6656), Triflupromazine (Sigma #1686003) and levomepromazine (Sigma #L0500000).

On to `CO/N=C(\C(=O)N[C@@H]1C(=O)N2C(C(=O)O)=C(COC(C)=O)CS[C@H]12)c1csc(N)n1` [Cefotaxim], for which, in experiment [1], the “increase of inflammatory response” value is given as 2 fold. The “dispersion of microcolonies at the endothelial cell surface” value in experiment [2] is on record as “poorly induced the dispersion”. Also, the “dispersion of bacterial aggregates formed in suspension” value in experiment [3] (Cefotaxim 20 μg/ml, 20 minutes) is on record as “did not significantly induce the dispersion”.
Regarding `CN(C)CCCN1c2ccccc2Sc2ccc(Cl)cc21` [Chlorpromazine], in experiment [3], the “effect on dispersion of meningococcal aggregates (in words)” value (“effect on dispersion” for short) was “no effects” and the “Concentration promoting efficient meningococcal dispersal (~80%)” value is recorded as “No effect”.
For `OCCN1CCN(CCCN2c3ccccc3Sc3ccc(C(F)(F)F)cc32)CC1` [Fluphenazine], the EC80 in experiment [3] came out at 40 µM.
Take `COc1ccc2c(c1)N(C[C@H](C)CN(C)C)c1ccccc1S2` [Levomepromazine]: in experiment [3], the “effect on dispersion” value is reported as “no effects” and the “Concentration promoting efficient meningococcal dispersal (~80%)” value was “No effect”.
As to `CN1CCCCC1CCN1c2ccccc2Sc2ccc([S+](C)[O-])cc21` (stereo not shown) [Mesoridazine], in experiment [3], the EC80 stood at 6 µM.
On to `OCCN1CCN(CCCN2c3ccccc3Sc3ccc(Cl)cc32)CC1` [Perphenazine], for which, in experiment [3], the EC80 was 40 µM.
For the molecule `CN1CCN(CCCN2c3ccccc3Sc3ccc(Cl)cc32)CC1` [Prochlorperazine], the EC80 in experiment [3] stood at 30 µM.
For the molecule `CN(C)CCCN1c2ccccc2Sc2ccccc21` [Promazine], in experiment [3], the “effect on dispersion” value is on record as “inhibited bacterial aggregation with better efficacy than Trifluoperazine” and the EC80 is 10 µM.
For `CSc1ccc2c(c1)N(CCC1CCCCN1C)c1ccccc1S2` (stereo not shown) [Thioridazine], the EC80 in experiment [3] was 4 µM.
`CN(C)CCCN1c2ccccc2Sc2ccc(C(F)(F)F)cc21` [Triflupromazine]: in experiment [3], the “effect on dispersion” value was “no effects” and the “Concentration promoting efficient meningococcal dispersal (~80%)” value was “No effect”.
